Literature values as cited in PMC10341550, “Beta-Secretase 1 Recruits Amyloid-Beta Precursor Protein to ROCK2 Kinase, Resulting in Erroneous Phosphorylation and Beta-Amyloid Plaque Formation” (International Journal of Molecular Sciences, 2023).

Assays:
Settings in all cases: cited from earlier work
[1] = system: Aβ production in an AD mouse brain
Excerpt: Alzheimer’s disease is currently the leading cause of dementia, with no effective treatment. […] Although Aβ cannot account for all features of Alzheimer’s disease, reducing Aβ production or accumulation is a major therapeutic strategy to confront the disease. The accumulation of Aβ peptides in senile plaques is the consequence of pathological processing of APP. There are two major pathways of APP processing: a non-amyloidogenic pathway invo ...

ROCK2 = system: ROCK2
protein kinase CK2α = system: protein kinase CK2α
Excerpt: Despite decades of intensive research, there is no efficient drug to prevent or cure Alzheimer’s disease. […] During the processing of APP, its cleavage by BACE1 is the rate-limiting step [16]; therefore, the inhibition of BACE1 could be a trivial solution. The development of small molecular inhibitors against BACE1 was set back with a series of unwanted side effects. Previously, it was shown that pharmacological inhibition of ROCK2 activity diminishes sAPPβ pro ...

SMILES | Aβ production [1] | ROCK2 inhibition selectivity (in words) (ROCK2) | inhibition of protein kinase CK2α (in words) (protein kinase CK2α)
CN(C)CCOc1cc(-c2cn[nH]c2)ccc1NC(=O)C1COc2ccccc2O1 (stereo not drawn) [SR3677] | diminished the production of Aβ in an AD mouse brain | – | –
CC(C)NC(=O)COc1cccc(-c2nc(Nc3ccc4[nH]ncc4c3)c3ccccc3n2)c1 [belumosudil] | – | highly selective | inhibition of the protein kinase CK2α
